IC50 data for four compounds are collected here from BindingDB's records for patent US12297186 (Agomab Spain, S.L.U., 2025).

One may read the IC50 as the concentration at which inhibition is half-maximal. High values mean weaker potency, low ones greater potency.

The target of this assay is T1, TGF-beta receptor type-1 (Homo sapiens, UniProt P36897).
T1 sequence (P36897 whole entry): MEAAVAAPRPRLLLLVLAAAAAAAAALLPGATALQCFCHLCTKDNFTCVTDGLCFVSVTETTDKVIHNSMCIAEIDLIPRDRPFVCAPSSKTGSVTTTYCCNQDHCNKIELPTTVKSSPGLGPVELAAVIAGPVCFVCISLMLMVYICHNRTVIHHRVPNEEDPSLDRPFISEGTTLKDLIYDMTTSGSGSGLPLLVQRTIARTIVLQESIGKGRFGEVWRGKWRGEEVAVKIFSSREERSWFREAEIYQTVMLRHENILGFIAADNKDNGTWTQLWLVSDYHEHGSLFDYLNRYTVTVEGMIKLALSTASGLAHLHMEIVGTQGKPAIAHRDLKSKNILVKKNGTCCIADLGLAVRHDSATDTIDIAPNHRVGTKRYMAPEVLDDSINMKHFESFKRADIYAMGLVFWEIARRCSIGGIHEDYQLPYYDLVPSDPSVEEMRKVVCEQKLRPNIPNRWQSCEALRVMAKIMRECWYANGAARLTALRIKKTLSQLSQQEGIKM
Put plainly: In Vitro Enzyme Assay. The protocol:
Human TGFβl R-1 inhibition experiments were carried out in a white 384-microplate low flange (Corning 3572) with ADP-Glo kinase Assay Kit (Promega V9101) and TGβR-1 Kinase Enzyme System (Promega V4092). […] The reaction mixture was incubated in gentle shaking for 120 min at RT, after incubation of 10 μL of ADP-Glo Reagent was added and incubated in gentle shaking for 40 min at RT. 20 μL of Kinase Detection Reagent was added and plate was incubated in gentle shaking for 30 min at RT. Luminiscence (1000 ms) was measured in Perkin Elmer EnSpire Multimode plate reader.

For `N#CC1C=C(CNC(=O)Cn2cc(-c3ccnc4ccccc34)c(-c3ccccn3)n2)C=CC1` (centres undefined) [US12297186, Example 13], the IC50 result was “in the range around 450 nM”.

Regarding `O=C(Cn1cc(-c2ccnc3ccccc23)c(-c2ccccn2)n1)NCC1=CC(Cl)CC=C1` (centres undefined) [US12297186, Example 12], the IC50 result is “in the range around 450 nM”.

In the case of `CC1C=C(CNC(=O)Cn2cc(-c3ccnc4ccccc34)c(-c3ccccn3)n2)C=CC1` (centres undefined) [US12297186, Example 10], the IC50 result is “in the range around 450 nM”.

`O=C(Cn1cc(-c2ccnc3ccccc23)c(-c2ccccn2)n1)NCC1=CC(F)CC=C1` (centres undefined) [US12297186, Example 11]: the IC50 result was “in the range around 450 nM”.
